{"source": "patent US9079859B2", "about": "“Synthetic lethal targeting of glucose transport” (AUCKLAND UNISERVICES LIMITED, priority 2011, dated 2015)", "key": {"786-O cells": {"tested_on": "786-O cells", "experiment": "Glucose uptake (2-deoxy-D-[3H]glucose), 786-O", "format": "cell-based", "details": "5 μM (FIG. 6C)", "description": "(§1) Glucose Uptake. One hundred thousand cells were plated per well in a six-well plate. The next day, cells were treated with the indicated concentration of drug and incubated for the indicated time. Cells were then washed twice with phosphate-buffered saline, incubated in low-glucose medium for 30 minutes, and 3H-2-deoxyglucose (0.5 μCi) was added in 1 ml of glucose-free media for an additional hour. Cells were washed twice in PBS and lysed (0.2 N NaOH and 0.2% sodium dodecyl sulfate). Glucose uptake was quantified with a scintillation counter."}, "[1]": {"tested_on": "RCC4/VHL cell clones overexpressing HIF", "experiment": "Sensitivity of RCC4/VHL clones overexpressing HIF", "format": "cell-based", "details": "non-degradable, constitutively active HIF; two clones", "description": "The hypoxia-inducible factor (HIF) family of transcription factors are VHL targets and we next examined whether toxicity was HIF-dependent (Iliopoulos et al., Nat Med., 1: 822-826 (1995); Maxwell et al., Nature, 399:271-275 (1999); Zimmer et al., Mol Cancer Res., 2:89-95 (2004)). A non-degradable, constitutively active HIF was overexpressed in RCC4/VHL cells. Two individual HIF-overexpressing clones were tested for their sensitivity to STF-31 (Sutphin et al., Cancer Res 67:5896-5905 (2007)). […] Furthermore, the sensitivity of RCCs that lack functional VHL to STF-31 is directly linked to the aberrant up-regulation of HIF."}, "RCC4 cells [2]": {"tested_on": "RCC4 cells", "experiment": "Glucose uptake (2-deoxy-D-[3H]glucose), RCC4", "format": "cell-based", "description": "as §1"}, "hexokinase": {"tested_on": "hexokinase", "experiment": "Hexokinase activity in whole-cell lysates, RCC4", "format": "cell-based", "details": "only after three days of treatment", "description": "We then examined whether this decrease in glycolysis in response to STF-31 was due to a decrease in glucose uptake or whether STF-31 inhibited a particular glycolytic enzyme. To test this, we measured glucose uptake using 2-deoxy-D-[^3H] glucose, a non-hydrolyzable, radioactive glucose analog. STF-31 impaired glucose uptake in RCC4 and 786-O cells but not in the matched isogenic cells expressing wild-type VHL (FIGS. 2B, 6A, and 6C). RCC4/VHL cells had lower baseline levels of glucose uptake compared to RCC4 cells and were unaffected by treatment with STF-31. […] Because the phosphorylation of glucose to glucose-6-phosphate is important for preventing glucose efflux from the cell, we asked whether STF-31 might function by inhibiting the phosphorylation of glucose by hexokinase. […]\nCell Culture and Reagents. […] GLUT1 was detected with anti-GLUT1 antibody from NeoMarkers/LabVision/Fisher. For immunofluorescent studies, GLUT1, GLUT2, and GLUT3 antibodies were purchased from R&D. Pyruvate/lactate levels and hexokinase activity were both measured by fluorometric assay (BioVision and Sigma-Aldrich, respectively). ATP levels were measured by bioluminescence assay (ATP Determination Kit from Molecular Probes/Invitrogen). […]"}, "RCC4 cells [3]": {"tested_on": "RCC4 cells", "experiment": "XTT cell viability assay, RCC4", "format": "cell-based", "details": "four days of treatment; compared to RCC4/VHL; concentration-dependent", "description": "(§2) Cell Viability Assays. For 2,3-bis[2-methoxy-4-nitro-5-sulfophenyl]-2H-tetrazolium-5-carboxanilide (XTT) assays, five thousand cells were plated in 96-well plates. The next day, vehicle (DMSO) or drug was added by serial dilution. Four days later, media were aspirated, XTT solution (0.3 mg/ml of XTT (Sigma), […] N-methyl dibenxopyrazine methyl sulfate (Sigma) in phenol red-free media) was added, and the plates were incubated at 37° C. for 1-2 hours. Metabolism of XTT was quantified by measuring the absorbance at 450 nm. IC50s were calculated using linear interpolation. For clonogenic survival assays, three hundred cells were plated per 60 mm tissue culture dish. The cells were allowed to attach overnight and then treated with vehicle or drug for 14 days. Colonies were fixed and stained with crystal violet (0.1% crystal violet in 95% ethanol). All conditions were measured in triplicate and each experiment was done in duplicate or triplicate. To determine necrosis, cells were treated with drug for a given time point. Media and cells were collected, centrifugated, and resuspended in 0.4% trypan blue (Invitrogen). Live and dead cells were counted on a hematocytometer."}, "ACHN shVHL cells": {"tested_on": "ACHN shVHL cells", "experiment": "Clonogenic survival, ACHN with shRNA to VHL", "format": "cell-based", "details": "clonogenic survival (FIG. 1E); only the VHL-silenced cells", "description": "as §2"}, "Caki-1": {"tested_on": "Caki-1", "experiment": "RCC panel sensitivity (Table 2)", "format": "cell-based", "details": "Caki-1, VHL wild-type"}, "ACHN shVHL": {"tested_on": "ACHN shVHL", "experiment": "RCC panel sensitivity (Table 2)", "format": "cell-based", "details": "VHL silenced"}, "VHL-deficient cells": {"tested_on": "VHL-deficient cells", "experiment": "ATP levels (bioluminescence assay)", "format": "cell-based", "description": "(§3) Cell Culture and Reagents. All cells were grown in DMEM+10% FCS. ACHN and ACHN shVHL were a kind gift from George V. Thomas (UCLA). HIF overexpressing clones were described previously (Sutphin et al., Cancer Res, 67:5896-5905 (2007)). Transfection of RNA oligos were performed with DnarmaFECT Reagent 1 (Dharmcon), according to manufacturer's directions. ON-TARGETplus SMART pools against HIF-1 R/ARNT were purchased from Dharmacon. Inducible shRNAmir to GLUT1 was purchased from Open Biosystems. GLUT1 was detected with anti-GLUT1 antibody from NeoMarkers/LabVision/Fisher. For immunofluorescent studies, GLUT1, GLUT2, and GLUT3 antibodies were purchased from R&D. Pyruvate/lactate levels and hexokinase activity were both measured by fluorometric assay (BioVision and Sigma-Aldrich, respectively). ATP levels were measured by bioluminescence assay (ATP Determination Kit from Molecular Probes/Invitrogen). In vitro kinase activities were performed by Millipore Kinase Profiler."}, "UMRC6": {"tested_on": "UMRC6", "experiment": "RCC panel sensitivity (Table 2)", "format": "cell-based", "details": "UMRC6, VHL mutant"}, "p53": {"tested_on": "p53", "experiment": "DNA damage response (p53, phospho-p53 Western blot)", "format": "cell-based", "details": "RCC4 and RCC4/VHL; 1.25, 2.5 and 5 μM"}, "RCC4 cells [4]": {"tested_on": "RCC4 cells", "experiment": "Necrotic cell death by trypan blue, RCC4", "format": "cell-based", "details": "5 μM, 3 days", "description": "as §2"}, "RCC4/VHL cells [5]": {"tested_on": "RCC4/VHL cells", "experiment": "Necrotic cell death by trypan blue, RCC4/VHL", "format": "cell-based", "details": "5 μM, 3 days", "description": "as §2"}, "PAK2": {"target": "T1, PAK2 (Homo sapiens, UniProt Q13177)", "T1 construct": "purchased Millipore Kinase Profiler", "T1 sequence (Q13177 whole entry, species assumed)": "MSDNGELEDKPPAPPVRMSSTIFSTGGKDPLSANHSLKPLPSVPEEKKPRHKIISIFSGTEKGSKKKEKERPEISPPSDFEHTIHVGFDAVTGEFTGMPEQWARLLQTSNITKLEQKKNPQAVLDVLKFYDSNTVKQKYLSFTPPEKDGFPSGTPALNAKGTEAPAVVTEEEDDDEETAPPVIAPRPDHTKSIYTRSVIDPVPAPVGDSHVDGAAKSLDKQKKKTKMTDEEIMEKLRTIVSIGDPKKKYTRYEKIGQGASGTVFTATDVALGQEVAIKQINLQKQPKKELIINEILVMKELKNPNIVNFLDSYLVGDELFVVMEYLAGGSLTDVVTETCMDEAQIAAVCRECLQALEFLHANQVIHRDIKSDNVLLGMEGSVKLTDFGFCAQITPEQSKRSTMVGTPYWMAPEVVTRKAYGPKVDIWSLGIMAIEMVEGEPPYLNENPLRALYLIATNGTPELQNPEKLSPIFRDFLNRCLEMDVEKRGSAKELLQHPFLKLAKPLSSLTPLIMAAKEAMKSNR", "experiment": "Kinase Profiler", "format": "biochemical", "details": "STF-31 10 μM", "description": "as §3"}, "CDK1/cyclinB": {"target": "T2, CDK1/cyclinB (Homo sapiens, UniProt P06493)", "T2 construct": "purchased Millipore (Kinase Profiler service)", "T2 sequence (P06493 whole entry, species assumed)": "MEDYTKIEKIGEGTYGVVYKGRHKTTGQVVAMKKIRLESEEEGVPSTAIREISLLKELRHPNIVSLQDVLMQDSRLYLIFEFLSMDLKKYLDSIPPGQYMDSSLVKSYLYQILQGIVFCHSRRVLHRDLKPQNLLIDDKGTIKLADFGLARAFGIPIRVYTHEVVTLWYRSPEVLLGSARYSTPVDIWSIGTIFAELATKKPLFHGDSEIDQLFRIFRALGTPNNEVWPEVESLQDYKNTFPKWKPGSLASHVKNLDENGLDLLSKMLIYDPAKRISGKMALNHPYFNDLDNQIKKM", "T2 sequence (P14635 whole entry partner, species assumed)": "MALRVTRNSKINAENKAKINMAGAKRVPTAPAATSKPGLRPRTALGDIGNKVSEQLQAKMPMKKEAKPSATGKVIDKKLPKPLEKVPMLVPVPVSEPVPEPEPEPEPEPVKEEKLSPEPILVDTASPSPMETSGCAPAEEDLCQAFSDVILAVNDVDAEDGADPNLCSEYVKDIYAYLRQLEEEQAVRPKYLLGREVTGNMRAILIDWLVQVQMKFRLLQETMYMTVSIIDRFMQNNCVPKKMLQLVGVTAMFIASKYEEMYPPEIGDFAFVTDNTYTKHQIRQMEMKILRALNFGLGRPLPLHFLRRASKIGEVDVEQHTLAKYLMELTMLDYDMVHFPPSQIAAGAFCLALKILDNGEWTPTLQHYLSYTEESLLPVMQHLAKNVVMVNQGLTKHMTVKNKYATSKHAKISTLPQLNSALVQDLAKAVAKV", "experiment": "Kinase Profiler", "format": "biochemical", "details": "STF-31 10 μM", "description": "as §3"}, "RCC4/VHL cells [6]": {"tested_on": "RCC4/VHL cells", "experiment": "Glucose uptake (2-deoxy-D-[3H]glucose), RCC4/VHL", "format": "cell-based", "description": "as §1"}, "[7]": {"details": "increasing concentrations of STF-31"}}}
{"smiles": "CC(C)(C)c1ccc(S(=O)(=O)NCc2ccc(C(=O)Nc3cccnc3)cc2)cc1", "note": "[STF-31]", "values": [{"measurement": "glucose uptake in 786-O cells", "setting": "786-O cells", "result": "impaired"}, {"measurement": "effect of ectopic HIF expression in wild-type VHL cells on response to STF-31", "setting": "[1]", "result": "sensitized"}, {"measurement": "glucose uptake in RCC4 cells", "setting": "RCC4 cells [2]; 2-deoxy-D-[3H]glucose", "result": "impaired"}, {"measurement": "glucose uptake in RCC4 cells versus concentration", "setting": "RCC4 cells [2]; [7]", "result": "dose-dependent"}, {"measurement": "hexokinase activity in RCC4 cells", "setting": "hexokinase", "result": "inhibited"}, {"measurement": "number of RCC4 cells (cell viability by XTT)", "setting": "RCC4 cells [3]", "result": "significant decrease"}, {"measurement": "sensitivity of ACHN cells with VHL silenced by shRNA", "setting": "ACHN shVHL cells", "result": "sensitive"}, {"measurement": "3-series sensitivity (sensitivity to STF-31)", "setting": "Caki-1", "result": "Yes"}, {"measurement": "3-series sensitivity (sensitivity to STF-31)", "setting": "ACHN shVHL", "result": "Yes"}, {"measurement": "inhibition of ATP production versus concentration", "setting": "VHL-deficient cells", "result": "dose-dependent"}, {"measurement": "decrease in ATP levels", "setting": "VHL-deficient cells; VHL-deficient cells", "result": 75, "unit": "%"}, {"measurement": "3-series sensitivity (sensitivity to STF-31)", "setting": "UMRC6", "result": "No"}, {"measurement": "total p53 or phospho-p53 levels", "setting": "p53", "result": "did not increase"}, {"measurement": "RCC4 cells exhibiting necrotic cell death", "setting": "RCC4 cells [4]", "result": "greater than 80%"}, {"measurement": "necrotic cell death of RCC4/VHL cells", "setting": "RCC4/VHL cells [5]", "result": "relatively insensitive"}, {"measurement": "Kinase response to STF-31", "setting": "PAK2", "result": 97}, {"measurement": "Kinase response to STF-31", "setting": "CDK1/cyclinB", "result": 96}, {"measurement": "glucose uptake in RCC4/VHL cells", "setting": "RCC4/VHL cells [6]; 2-deoxy-D-[3H]glucose", "result": "unaffected"}, {"measurement": "glucose uptake in RCC4/VHL cells versus concentration", "setting": "RCC4/VHL cells [6]; [7]", "result": "relatively stable"}]}
